The source made the active and inactive calls.
Assays:
[1] = biological target: T1, Mannose-6-phosphate isomerase (Homo sapiens, UniProt P34949); test: inhibitors of human PMI, primary screen, biochemical, fluorescence intensity, coupled assay (AID 1209)
T1 sequence (P34949 whole entry): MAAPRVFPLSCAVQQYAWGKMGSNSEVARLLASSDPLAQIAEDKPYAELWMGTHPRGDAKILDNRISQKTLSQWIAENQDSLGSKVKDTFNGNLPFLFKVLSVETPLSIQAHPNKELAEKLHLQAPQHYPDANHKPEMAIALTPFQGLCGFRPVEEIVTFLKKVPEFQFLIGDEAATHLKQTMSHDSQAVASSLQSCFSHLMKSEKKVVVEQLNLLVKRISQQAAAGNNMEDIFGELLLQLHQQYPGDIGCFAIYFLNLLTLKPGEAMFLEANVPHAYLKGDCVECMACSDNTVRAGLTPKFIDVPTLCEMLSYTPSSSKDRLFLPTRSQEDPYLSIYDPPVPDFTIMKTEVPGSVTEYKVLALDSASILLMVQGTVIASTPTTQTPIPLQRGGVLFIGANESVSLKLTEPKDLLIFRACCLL

[2] = biological target: T2, Protein skinhead-1 (Caenorhabditis elegans, UniProt P34707); format: functional
T2 sequence (P34707 whole entry): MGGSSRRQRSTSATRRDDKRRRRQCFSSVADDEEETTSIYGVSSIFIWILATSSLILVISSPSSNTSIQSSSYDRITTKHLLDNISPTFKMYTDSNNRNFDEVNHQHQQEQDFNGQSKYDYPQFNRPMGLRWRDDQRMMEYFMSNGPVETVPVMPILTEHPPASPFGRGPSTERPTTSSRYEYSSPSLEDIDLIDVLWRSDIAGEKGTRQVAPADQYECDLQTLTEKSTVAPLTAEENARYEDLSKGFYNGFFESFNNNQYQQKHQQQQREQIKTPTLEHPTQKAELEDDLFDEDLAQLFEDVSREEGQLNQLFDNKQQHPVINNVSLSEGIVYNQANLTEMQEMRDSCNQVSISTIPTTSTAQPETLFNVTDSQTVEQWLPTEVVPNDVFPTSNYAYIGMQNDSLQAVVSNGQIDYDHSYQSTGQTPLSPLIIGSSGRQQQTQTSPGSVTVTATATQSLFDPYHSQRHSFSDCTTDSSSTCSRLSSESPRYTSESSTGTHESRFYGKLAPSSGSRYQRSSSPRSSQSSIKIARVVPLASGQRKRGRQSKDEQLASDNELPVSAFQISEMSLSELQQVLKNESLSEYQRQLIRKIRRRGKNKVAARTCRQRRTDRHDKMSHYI

[3] = tested on: HT-1080; test: cytotoxicity in HT1080 fibrosarcoma cells, cell-based, fluorescence readout (AID 620); format: functional; conditions: Homo sapiens
[4] = Luminescence Cell-Based Dose Confirmation HTS to Identify Inhibitors of Platelet Dense Granule Release. [Related pubchem assays: 1663 (Primary HTS), 1678 (Summary of Project)]; format: functional
[5] = biological target: T3, Luciferin 4-monooxygenase (Photinus pyralis, UniProt P08659); test: Counter Screen for Luciferase-based Assay Positives. [Related pubchem assays: 620, 618, 411 ]
[6] = biological target: T3, Luciferin 4-monooxygenase; test: firefly luciferase enzyme inhibitors, dose response, biochemical, luminescence (AID 1891)
[7] = tested on: H4; test: Luminescence Cell-Based Dose Response HTS to Identify Activators of 5'UTR Stem-Loop Driven Prion Protein mRNA Translation in H4 Neuroglioblastoma Cells. [Related pubchem assays: 1829 (Project Summary), 1814 (Primary HTS)]; format: functional; conditions: Homo sapiens
[8] = Luminescence Cell-Based Dose Response to Identify Activators of Luciferase Translation or Activity in H4-C Neuroglioblastoma Cells. [Related pubchem assays: 1829 (Project Summary), 1814 (Primary HTS)]; format: functional
[9] = Luminescence Cell-Based Dose Confirmation to Identify Activators of 5'UTR Stem-Loop Driven Alpha-Synuclein mRNA Translation in H4 Neuroglioblastoma Cells. [Related pubchem assays: 1829 (Project Summary), 1814 (Primary HTS)]; format: functional
[10] = Luminescence Cell-Based Dose Response to Identify Activators of 5'UTR Stem-Loop Driven Prion Protein mRNA Translation in H4-C Neuroglioblastoma Cells. [Related pubchem assays: 1829 (Project Summary), 1814 (Primary HTS)]; format: functional
[11] = biological target: Melanin-concentrating hormone receptor 1 (Homo sapiens, UniProt Q99705); test: Fluorescence-based counterscreen for antagonists of the G-protein coupled receptor 7 (GPR7): cell-based high throughput dose response assay to identify antagonists of the melanin-concentrating hormone receptor 1 (MCHR1).; format: functional
[12] = biological target: Lytic switch protein BZLF1 (Epstein-Barr virus (strain B95-8) (HHV-4) (Human herpesvirus 4), UniProt P03206); test: EBV ZTA inhibitors, dose response, counter-screen for EBNA-1 inhibitor project, biochemical, fluorescence polarization, Epstein-Barr virus, 1536-well (AID 2377); design: species or system human gammaherpesvirus 4;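 further: fluorescence polarization of Cy5-labelled ZRE DNA probe bound by purified Zta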
[13] = biological target: Epstein-Barr nuclear antigen 1 (Epstein-Barr virus (strain B95-8) (HHV-4) (Human herpesvirus 4), UniProt P03211); test: EBNA-1 inhibitors, dose response, biochemical, fluorescence polarization, 1536-well (AID 2381); design: species or system human gammaherpesvirus 4;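 further: fluorescence polarization of a Cy5 DNA probe bound by EBNA-1 protein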
[14] = biological target: Aryl hydrocarbon receptor (Homo sapiens, UniProt P35869); test: Luminescence-based cell-based high throughput dose response assay for activators of the Aryl Hydrocarbon Receptor (AHR). [Related pubchem assays: 2796 (Primary screen (AHR activators in singlicate)), 2845 (Confirmation screen (AHR activators in triplicate)), 434939 (Counterscreen (PXR activators in triplicate)), 2804 (Summary (AHR activators))]; format: ADME
[15] = biological target: Estrogen receptor beta (Homo sapiens, UniProt Q92731); test: ERβ–SRC-3 coactivator interaction inhibitors, confirmation, orthogonal assay, biochemical, ELISA, streptavidin-HRP readout (AID 1060)
[16] = biological target: T4, Leucine aminopeptidase (Plasmodium falciparum 3D7, UniProt Q8IL11); test: P. falciparum M17LAP inhibitors, primary screen, biochemical, fluorogenic H-Leu-NHMec substrate, 1536-well (AID 1619); format: functional
T4 sequence (Q8IL11 whole entry): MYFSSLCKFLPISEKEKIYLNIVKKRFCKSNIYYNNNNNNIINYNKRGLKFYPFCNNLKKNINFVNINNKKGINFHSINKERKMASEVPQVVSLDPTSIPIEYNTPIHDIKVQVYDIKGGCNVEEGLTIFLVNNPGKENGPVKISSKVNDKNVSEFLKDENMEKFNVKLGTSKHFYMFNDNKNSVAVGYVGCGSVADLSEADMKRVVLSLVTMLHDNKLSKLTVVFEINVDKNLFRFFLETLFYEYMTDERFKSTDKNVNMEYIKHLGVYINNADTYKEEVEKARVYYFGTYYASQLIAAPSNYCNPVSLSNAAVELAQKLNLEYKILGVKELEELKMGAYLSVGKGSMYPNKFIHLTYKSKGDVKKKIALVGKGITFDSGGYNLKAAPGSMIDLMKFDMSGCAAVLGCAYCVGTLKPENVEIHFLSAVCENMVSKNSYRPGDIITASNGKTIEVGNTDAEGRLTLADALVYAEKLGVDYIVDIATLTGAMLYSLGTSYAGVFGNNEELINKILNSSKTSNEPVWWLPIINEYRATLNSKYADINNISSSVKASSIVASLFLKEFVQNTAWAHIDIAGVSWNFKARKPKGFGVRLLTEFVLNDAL

[17] = biological target: Aspartyl aminopeptidase (Plasmodium falciparum 3D7, UniProt Q8I2J3); test: Counterscreen for inhibitors of M1 and M17 aminopeptidases: QFRET-based biochemical high throughput dose response assay for inhibitors of the Plasmodium falciparum M18 Aspartyl Aminopeptidase (PFM18AAP). [Related PubChem assays: 1619 (Screening assay (M17LAP inhibitors).), 1445 (Screening assay (M1AAP inhibitors).)]
[18] = biological target: Procathepsin L (Homo sapiens, UniProt P07711); test: cathepsin L inhibitors, dose response, counter-screen for M1/M17 aminopeptidase inhibitor project, biochemical, QFRET, 1536-well (AID 2214)
[19] = biological target: E3 ubiquitin-protein ligase Mdm2 (Homo sapiens, UniProt Q00987); test: enhancers of MDM2-luciferase reporter signal, concentration-effect titration, project on inhibitors of MDM2 ubiquitin ligase, cellular assay, luminescent readout, 384-well plate format (AID 1394); format: functional;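 further: MDM2 E3 inhibitors raise luminescence so EC50 is for signal enhancement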
[20] = A High Throughput Confirmatory Assay used to Identify Novel Compounds that Inhibit Mycobacterium Tuberculosis in the absence of Glycerol.; format: functional
[21] = cells; format: functional
[22] = biological target: Major prion protein (Homo sapiens, UniProt P04156); format: functional, cell-based
[23] = biological target: Photoreceptor-specific nuclear receptor (Homo sapiens, UniProt Q9Y5X4); format: functional;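 further: potency for compounds that break the NR2E3 corepressor complex and count as activators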
[24] = cells
[25] = biological target: Peroxisome proliferator-activated receptor gamma/Nuclear receptor corepressor 2 (Homo sapiens, UniProt P37231+Q9Y618); format: functional
[26] = Luminescence Cell-Based Dose Confirmation HTS to Identify Activators of 5'UTR Stem-Loop Driven Alpha-Synuclein mRNA Translation in H4 Neuroglioblastoma Cells. [Related pubchem assays: 1829 (Project Summary), 1814 (Primary HTS)]; format: functional
[27] = Luminescence Cell-Based Dose Response HTS to Identify Activators of Luciferase Translation or Activity in H4 […] Cells. [Related pubchem assays: 1829 (Project Summary), 1814 (Primary HTS)]; format: functional
[28] = biological target: Ubiquitin carboxyl-terminal hydrolase BAP1 (Homo sapiens, UniProt Q92560); test: BAP1 deubiquitinase inhibitors, dose response, biochemical (AID 714); format: functional
[29] = A cytotoxicity screen of small molecule inhibitors of the PhoP region in Salmonella typhi identified in the primary screen. [Related pubchem assays: 1850, 1864, 1985 ]; format: functional
[30] = inhibitors of firefly luciferase expression or activity, dose response, H4 neuroglioma cells, luminescence (AID 1990); format: functional, cell-based
[31] = inhibitors of SNCA 5'UTR-driven reporter translation, confirmation, H4 neuroglioma cells, luminescence (AID 1988); format: functional, cell-based
[32] = microbe, parasite or virus in culture; format: functional; conditions: Mycobacterium tuberculosis
[33] = tested on: Staphylococcus aureus; test: Inhibitors of Bacterial Quorum Sensing Structure Activity Relationship (SAR) Analysis: Dose Response Assay. [Related pubchem assays: 700, 527 ]; format: functional, organism-based

CCCCCC1(C)NC(=S)N(c2ccccc2)N1 (centres undefined)
IC50 [1]: > 50 µM (not active)

CN(C)c1ccc(N/C=C/C(=O)c2ccco2)cc1
IC50 [2]: 76.5 µM (inactive)
EC50 [3]: > 50 µM (not active)
EC50 [4]: 0.891 µM (active)
EC50 [5]: < 0.2 µM (active)
EC50 [6]: 1.9 µM (active)

Cc1cc(C(=O)CSc2nc3ccccc3o2)c(C)n1CC1CCCO1 (centres undefined)
EC50 [7]: < 0.1 µM (active)
EC50 [8]: 0.231 µM (active)
EC50 [9]: 0.21 µM (active)
EC50 [10]: 0.323 µM (active)

Cc1cc(=O)oc2cc(OC(=O)c3ccccc3)ccc12
IC50 [11]: > 43.8 µM (not active)

COc1ccccc1CNC(=O)c1ccc2nc3[nH]c4ccccc4c3nc2c1
IC50 [12]: > 111 µM (not active)
IC50 [13]: 14.4 µM (not active)

COCC(=O)N1CCc2ccc(NC(=O)c3ccc(C(F)(F)F)cc3)cc2C1
EC50 [14]: > 1.13 µM (active)

Fc1ccc(CSc2ncnc3c2oc2ccccc23)cc1
IC50 [15]: > 50 µM (not active)

COc1ccc(Cl)cc1C(=O)Nc1ccc(N(C)C(C)=O)cc1
EC50 [14]: 2.81 µM (active)

CC(C)c1ccc(NC(=O)C2CCCCC2C(=O)O)cc1 (centres undefined)
IC50 [16]: 3.51 µM (active)
IC50 [17]: > 73.5 µM (not active)
IC50 [18]: > 59.6 µM (not active)

Cc1cc(C)c(S(=O)(=O)c2ccccc2)c(OC(=O)c2cc(F)c(F)cc2Cl)n1
EC50 [19]: 186 µM (not active)

CCCCCC1CC(CC(=O)NC(=S)Nc2ccc([N+](=O)[O-])cc2)C(=O)O1 (centres undefined)
IC50 [20]: > 100 µM (active)
IC50 [21]: 20.3 µM (active)

Brc1cc(Br)c2ncnc(N3CCCCC3)c2c1
IC50 [22]: 1.38 µM (active)
IC50 [23]: 1.42 µM (active)
IC50 [24]: > 138 µM (inactive)
IC50 [25]: 2.36 µM (active)

Cc1oc2cc3c(C(=O)N4CCCCC4)c(C)oc3cc2c1C(=O)N1CCCCC1
EC50 [7]: > 120 µM (not active)
EC50 [26]: < 0.1 µM (active)
EC50 [27]: 12.2 µM (active)
EC50 [8]: 0.573 µM (active)
EC50 [9]: 0.598 µM (active)
EC50 [10]: > 12 µM (not active)

O=C(CCCCCNc1nc(S)nc2ccccc12)NCCc1ccc(Cl)cc1
IC50 [12]: > 111 µM (not active)
IC50 [13]: 13.4 µM (not active)

O=C(Nc1ccc(F)cc1)c1ccccc1S(=O)(=O)c1ccccc1[N+](=O)[O-]
EC50 [19]: 0.53 µM (not active)

O=S(=O)(c1cccc(S(=O)(=O)N2CCC(n3nnc4ccccc43)CC2)c1)N1CCCCC1
IC50 [28]: 18.3 µM (active)

Cc1cc(C)c[n+](CC(=O)c2ccc(NC(=O)c3ccccc3)cc2)c1
EC50 [29]: > 50 µM (active)

COc1ccc(NC(=O)c2c(NC(=O)CNCc3ccco3)sc3c2CCC3)c(OC)c1
IC50 [28]: 35.8 µM (not active)

CCN(CC)S(=O)(=O)c1ccc(/C(O)=C(\C#N)c2nc3ccccc3n2C)cc1
EC50 [30]: > 120 µM (not active)
EC50 [31]: > 120 µM (not active)
EC50 [29]: > 50 µM (active)

O=C1NCC(c2ccccc2)C1C(=O)N/N=C\c1ccc(-c2ccc(Cl)c(Cl)c2)o1 (centres undefined)
IC50 [20]: > 100 µM (active)
CC50 [32]: > 40 µM (active)

Cc1ccc(Cl)c(Nc2ccccc2C(=O)O)c1Cl [MECLOFENAMIC ACID]
IC50 [33]: 0.877 µM (active)
